Test results: US11318134B2, “Benzamide compounds” (priority 2018, dated 2022)

Legend:
Bcl-2 = Bcl-2 (Homo sapiens (Human), UniProt P10415); assay: Bcl-2 HTRF assay (FAM-Bak peptide); assay type: binding; conditions: HTRF, 4 nM Bcl-2, 100 nM FAM-Bak peptide; read-out: Bc1-2 IC50
Bcl-XL = Bcl-XL (Homo sapiens (Human), UniProt Q07817); assay: Bcl-XL HTRF assay (FAM-Bad peptide); assay type: binding; conditions: HTRF, 3 nM Bcl-XL, 40 nM FAM-Bad peptide; read-out: Bc1-XL IC50
RS4;11 cells = assay: RS4;11 cell proliferation assay (CellTiter-Glo); assay type: cell-based; conditions: Homo sapiens, RS4-11, 48 h, read-out: RS4;11 (nM), CTG IC50
NCI-H1963 cells = assay: NCI-H1963 cell proliferation assay (CellTiter-Glo); assay type: cell-based; conditions: Homo sapiens, NCI-H1963, 72 h, read-out: H1963 (nM), CTG IC50
Procedure: Cell proliferation was measured using the CellTiter-Glo® Luminescent Cell Viability Assay. The assay involved the addition of a single reagent (CellTiter-Glo® Reagent) directly to cells cultured in serum-supplemented medium.
Each compound evaluated was prepared as a DMSO stock solution (10 mM). Compounds were tested in duplicate on each plate, with a 10-point serial dilution curve (1:3 dilution). Compound treatment (1.0 μL) was added from the compound dilution plate to the cell plate. The highest compound concentration was 10 μM (final), with a 0.1% final DMSO concentration. Plates were then incubated at 37° C., 5% CO2. After 48 h of compound treatment for RS4;11 or 72 h for NCI-H1963, cell plates were equilibrated at rt for approximately 30 mins. An equi-volume amount of CellTiter-Glo® Reagent (40 μL) was added to each well. […] Luminescence was recorded using a Envision plate reader according to CellTiter-Glo protocol. IC50 of each compound was calculated using GraphPad Prism by nonlinear regression analysis.

Bcl-XL, sequence (Q07817 whole entry): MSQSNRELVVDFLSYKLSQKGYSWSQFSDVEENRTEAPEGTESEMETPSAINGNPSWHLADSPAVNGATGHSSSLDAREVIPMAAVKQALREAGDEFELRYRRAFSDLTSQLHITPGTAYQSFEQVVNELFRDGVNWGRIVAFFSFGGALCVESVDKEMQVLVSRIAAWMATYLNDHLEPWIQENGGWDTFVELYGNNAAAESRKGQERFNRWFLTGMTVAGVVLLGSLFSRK
Bcl-2, sequence (P10415 whole entry): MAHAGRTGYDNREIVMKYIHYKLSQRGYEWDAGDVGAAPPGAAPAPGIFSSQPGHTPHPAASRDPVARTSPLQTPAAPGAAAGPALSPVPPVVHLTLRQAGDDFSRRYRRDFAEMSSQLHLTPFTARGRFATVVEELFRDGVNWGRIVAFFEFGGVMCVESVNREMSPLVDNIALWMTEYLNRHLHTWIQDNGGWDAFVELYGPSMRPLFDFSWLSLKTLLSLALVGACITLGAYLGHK

Compound	IC50 (Bcl-2) [nM]	IC50 (Bcl-XL) [nM]	IC50 (RS4;11 cells) [nM]	IC50 (NCI-H1963 cells) [nM]
CN(C)CC[C@H](CSc1ccccc1)Nc1ccc(S(=O)(=O)NC(=O)c2ccc(N3CCN(CC4=C(C56CC(C(F)F)(C5)C6)CC(C)(C)CC4)CC3)cc2)cc1S(=O)(=O)C(F)(F)F [Example 63, (R)-4-(4-((2-(3-(Difluoromethyl)bicyclo[1.1.1]pentan-1-yl)-4,4-dimethylcyclohex-1-en-1-yl)methyl)piperazin-1-yl)-N-((4-((4-(dimethylamino)-1-(phenylthio)butan-2-yl)amino)-3-((trifluoromethyl)sulfonyl)phenyl)sulfonyl)benzamide]	≤ 10	≤ 10	< 100	< 500
CC1(C)CCC(CN2CCN(c3ccc(C(=O)NS(=O)(=O)c4ccc(N[C@H](CCN5CCNCC5)CSc5ccccc5)c(S(=O)(=O)C(F)(F)F)c4)cc3)CC2)=C(C23CC(C(F)F)(C2)C3)C1 [Example 64, (R)-4-(4-((2-(3-(difluoromethyl)bicyclo[1.1.1]pentan-1-yl)-4,4-dimethylcyclohex-1-en-1-yl)methyl)piperazin-1-yl)-N-((4-((1-(phenylthio)-4-(piperazin-1-yl)butan-2-yl)amino)-3-((trifluoromethyl)sulfonyl)phenyl)sulfonyl)benzamide]	≤ 10	≤ 10	100 to 1000	> 1000
CCN(CCO)CC[C@H](CSc1ccccc1)Nc1ccc(S(=O)(=O)NC(=O)c2ccc(N3CCN(CC4=C(C56CC(C(F)F)(C5)C6)CC(C)(C)CC4)CC3)cc2)cc1S(=O)(=O)C(F)(F)F [Example 70, (R)-4-(4-((2-(3-(difluoromethyl)bicyclo[1.1.1]pentan-1-yl)-4,4-dimethylcyclohex-1-en-1-yl)methyl)piperazin-1-yl)-N-((4-((4-(ethyl(2-hydroxyethyl)amino)-1-(phenylthio)butan-2-yl)amino)-3-((trifluoromethyl)sulfonyl)phenyl)sulfonyl)benzamide]	≤ 10	≤ 10	100 to 1000	> 1000
